Laboratory results taken from patent US10376518B2, “Methods for the treatment of autoimmune diseases” (UCL Business PLC, priority 2013, dated 2019).

Legend:
[1] = test system: FOXP3 expression by CD8+ T cells; test: CD8+FOXP3+ Treg induction in PBMC cultures, flow cytometry; type: cell-based, human; details: for FOXP3 expression by CD8+ T cells: 24 h
Excerpt: Isolation of cell populations. PBMC were isolated by Ficoll-Paque Plus (GE Healthcare) gradient centrifugation, resuspended to 10^7 cells/ml in FCS (Biosera) and 5% DMSO (Sigma-Aldrich), and frozen until subsequent use. CD8^+ T cells were negatively isolated and monocytes, CD4^+ T cells or B cells were depleted from PBMCs by positive selection with magnetic beads (Miltenyi, Biotec). Monocyte subsets or CD8^+ T cells interacting with monocytes were FACS sorted with the FACSAria (Beckton, Dickinson) based on expression of HLA-DR and CD14 or CD8 respectively.
(§1) Cell Cultures. For CD8^+FoxP3^+ Treg induction, PBMC were cultured with anti-CD3 mAb (OKT3 (e-bioscience), HIT3A (e-bioscience), UCHT1 (e-bioscience), Otelixizumab (GSK)) or anti-CD3 F(Ab)2 (GSK) in RPMI1640, (Sigma-Aldrich), 10% fetal calf serum (Biosera) or human serum type AB (Lonza), 100 U/mg/ml penicillin/streptomycin (Sigma-Aldrich) for 24 h or 5 d. Alternatively, 1 μg/ml of agonist antibodies against CD28 (e-bioscience) or TNFRII (Hycult Biotech) in combination with OKT3 were utilized in PBMC cultures depleted of monocytes. For cytokine neutralization cultures, PBMC were cultured with OKT3 alone or in the presence of an isotype control or 10 μg/ml anti-TNF-α (R&D systems) or anti-IL-1β mAbs (R&D systems), 12.5 μg/ml anti-TGF-β mAb (R&D systems) or 0.1 μg/ml anti-IL-6 mAb (R&D systems). To inhibit monocyte activation of CD8^+ T cells, 10 μg/ml anti-CD80 (R&D systems) or anti-CD86 (R&D systems) were utilized. To convert a non-responder CD8^+ T cell into a responder, whole PBMC were incubated with 10 μg/ml TAPI (Enzo Life Sciences) for 1 h at room temperature, or with 5 μM selective p38 MAPK inhibitor, BIRB 796 (Merck Millipore), for 2 hours at 37° C. before culture with OKT3.
Flow cytometry and soluble cytokine detection. Cell surface staining and intracellular staining were performed using the eBioscience FOXP3 staining buffer set as per manufacturers' instructions. For CD8^+ T cell staining, CD8-FITC and CD4-V450 were used to identify a pure CD8^+ T cell population. CD25-PECy7, TNFRII-APC, CTLA-4-PE, TGFβ-APC were used for characterization. For monocyte and B cells staining, CD14-APC, CD16-PE, HLA-DR-PECy7, CD19-APC were used in combination with membrane TNFα-PE. FOXP3-PE was used to detect intracellular FOXP3. For analysis of human intracellular cytokine production, PBMC were stimulated for 4 h with 50 ng/ml PMA, 250 ng/ml ionomycin (Sigma-Aldrich), and Golgi-Plug (BD, Biosciences) in complete medium. IFN-γ-PECy7, IL-10-APC, IL-2-APC, IL-17-APC, TNF-α-APC and appropriate isotype controls were utilized. For staining of membrane TNF-α versus soluble TNF-α production by monocytes, PBMC were cultured with anti-CD3 mAb alone, or after pre-incubation with TAPI, for 24 h. Supernatants were subsequently removed and replaced with the aforementioned stimulation mix for 4 h. PBMC were then stained for CD14-APC and membrane TNF-α-PE, before intracellular staining for TNF-α-FITC. Data were acquired on an LSRII (Beckton, Dickinson) and analyzed with FlowJo (TreeStar). IL-17 and IFN-γ levels from suppression assay supernatants were measured by mosaic ELISA (R&D Systems) as described by manufacturer's instruction and analyzed by Quansys Q-View™ Software (R&D Systems).

[2] = test system: membrane TNF-α expression by monocytes; test: membrane TNF-α staining of monocytes in PBMC, flow cytometry; type: cell-based, human; details: PBMC pre-incubated 1 h at room temperature, 10 μg/ml
Protocol: as §1, with “To convert a non-responder CD8^+ T cell into a responder, whole PBMC were incubated with 10 μg/ml TAPI (Enzo Life Sciences) for 1 h at room temperature, or with 5 μM selective p38 MAPK inhibitor, BIRB 796 (Merck Millipore), for 2 hours at 37° C. before culture with OKT3.” left out
Flow cytometry and soluble cytokine detection. […] Data were acquired on an LSRII (Beckton, Dickinson) and analyzed with FlowJo (TreeStar). IL-17 and IFN-γ levels from suppression assay supernatants were measured by mosaic ELISA (R&D Systems) as described by manufacturer's instruction and analyzed by Quansys Q-View™ Software (R&D Systems).

[3] = fixed monocytes reintroduced to autologous monocyte-depleted PBMC

`Cc1ccc(-n2nc(C(C)(C)C)cc2NC(=O)Nc2ccc(OCCN3CCOCC3)c3ccccc23)cc1` [BIRB 796] was tested, and the “FOXP3 expression by CD8+ T cells that did not initially respond to CD3-specific stimulation” value ([1]; RA PBMC pre-incubated 5 μM, 2 h, 37° C., then OKT3 24 h, non-responders) was “resulted in FOXP3 expression” and the “response of CD8+ T cells that could already induce FOXP3 expression” value ([1]; RA PBMC pre-incubated 5 μM, 2 h, 37° C., then OKT3 24 h, responders) was “did not alter the response”.

In the case of TAPI, the “maximal induction of CD8+FOXP3+ Treg from prior non-responders” value ([1]; RA PBMC pre-incubated with TAPI, then anti-CD3 mAb 24 h) is reported as “approximately 50%”, the “induction of CD8+FOXP3+ Treg in healthy individuals” value ([1]; healthy PBMC pre-incubated with TAPI, then OKT3 24 h) is reported as “this effect was not observed in healthy individuals” and the “expression of membrane TNF-α by monocytes” value [2] is reported as “increased expression of membrane TNF-α by monocytes”.

With “F(Ab)2 of Otelixizumab: F(Ab)2 fragment of the anti-CD3 antibody Otelixizumab (GSK)” the “FOXP3 expression by CD8+ T cells” value [1, 3] was “successfully induced FOXP3 expression”.

In the case of OKT3: anti-CD3 mAb clone (e-bioscience), the “FOXP3 expression by CD8+ T cells” value [1, 3] is reported as “successfully induced FOXP3 expression” and the “FOXP3 expression by CD8+ T cells” value ([1]; whole RA PBMC, 1 μg/ml) is reported as “successfully increased levels of FOXP3 expression”.
